What all share (type): in vivo
Experiment [1] relates to codling moth Cydia pomonella. Put plainly: Field trap attraction of codling moth. Particulars: traps baited with 10 mg. The procedure:
(§1) The compounds eliciting a strong response from antennae of female apple fruit moth and codling moth were then all tested in field traps for attraction of insects. Compounds were applied at a standard dose of 10 mg on red rubber septa, the septa were mounted in Tetra traps with sticky bottoms (Arm et al. 1979).
In a wind tunnel experiment, a blend of farnesol and (E)-beta-farnesene released at 10 ng/min attracted within 2 min 35% of the males tested to the source (N=60).

For experiment [2], the system named is apple fruit moth Argyresthia conjugella. Put plainly: Field trap attraction of apple fruit moth. As to conditions: for attraction of apple fruit moth females and males to field traps compared with blank: single compounds, 10 mg on red rubber septa in Tetra traps with sticky bottoms; for relative attractiveness for apple fruit moth among compounds and blends tested: field traps, 10 mg on red rubber septa, males and females. As for the experimental part: as §1
Furthermore, 2-phenyl ethanol was tested in a series of 2-component blends, including all compounds which had shown some attractiveness by themselves.
(§2) Its attractivity can be augmented by blending it with anethole. […] Both sexes of Argyresthia conjugella were attracted. Attraction of females is of importance for monitoring the migration of mated females into orchards. Attraction of females enables population control by mass-trapping, by an attracticide formulation, or by disruption of mating and oviposition behaviour.

In a further experiment the test system is other insects. Put plainly: Field trapping experiment, species specificity (other insects). Particulars: conditions tested (region, time of season). As for the experimental part: as §1, §2
Attraction of Argyresthia conjugella to 2-phenyl ethanol has not been reported, and the blend of 2-phenyl ethanol and anethole has not been described to be attractive for any other species.

The structures appear in SMILES notation. Entries after “also recorded” stand apart in the source; their conditions may differ.

Turning to `CC/C=C\CC1=C(C)CCC1=O` [cis-jasmone], in experiment [1], the “attraction of codling moth males to baited traps” value (“attraction of codling moth males” below) is listed as “attracted in significant numbers”.

For the molecule `C=CC(C)(O)CCC=C(C)C` (stereo not drawn) [linalool, Linalool], the “attraction of apple fruit moth females and males to field traps compared with blank” value (from here on “attraction … compared with blank”) in experiment [2] is reported as “numbers significantly different from blank”.

Take `CC=Cc1ccc(OC)cc1` [anethole, Anethole]: the “attraction of codling moth males” value in experiment [1] is on record as “attracted in significant numbers”. For the same molecule, the “relative attractiveness for apple fruit moth among compounds and blends tested” value in experiment [2] (listed as Anethole) is listed as “only a weak attractant”. The “attraction … compared with blank” value in experiment [2] is “numbers significantly different from blank”.

On to `COc1ccc(C=O)cc1` [p-anisaldehyde, P-Anisaldehyde], for which the “attraction of codling moth males” value in experiment [1] is recorded as “attracted in significant numbers”. Moreover, in experiment [2], the “attraction … compared with blank” value is on record as “numbers significantly different from blank”.

As to `CC/C=C\CCOC(=O)C(C)CC` (stereo not drawn) [(Z)3-hexenyl 2-methylbutanoate], the “attraction of codling moth males” value in experiment [1] is recorded as “attracted in significant numbers”.

For the molecule `CC(C)=CCCC(C)=CCCC(C)=CCO` [farnesol, Farnesol], the “attraction of codling moth males” value in experiment [1] is “attracted in significant numbers”.

Take `OCCc1ccccc1` [2-phenyl ethanol, 2-Phenyl ethanol]: in the experiment on other insects, the “attraction of insects other than Argyresthia conjugella (species specificity)” value is “no other insects were attracted in significant numbers”. Besides, in experiment [2], the “relative attractiveness for apple fruit moth among compounds and blends tested” value is recorded as “single most attractive compound”; the “attraction … compared with blank” value is “numbers significantly different from blank; also recorded: attractant for both males and females”.
